Data reported in PubChem BioAssay (NCI).
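All cell lines were grown in 96-well plates and treated with compound for 48 hours. Abbreviation: GI50, concentration required for 50% inhibition of growth. At the TGI there is no net growth.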

Columns and labels:
Assay in all cases: NCI tumour cell line growth inhibition, 48 h
MDA-MB-231 breast = system: MDA-MB-231 breast
HCT-15 colon = system: HCT-15 colon
RPMI-8226 leukemia = system: RPMI-8226 leukemia
OVCAR-8 ovarian = system: OVCAR-8 ovarian
NCI-H460 lung = system: NCI-H460 lung
SK-MEL-2 melanoma = system: SK-MEL-2 melanoma
UO-31 renal = system: UO-31 renal
IGROV1 ovarian = system: IGROV1 ovarian
HT29 colon = system: HT29 colon
MCF7 breast = system: MCF7 breast
SNB-75 CNS = system: SNB-75 CNS
SF-539 CNS = system: SF-539 CNS
HOP-62 NSCLC = system: HOP-62 NSCLC
HOP-92 NSCLC = system: HOP-92 NSCLC
HCC-2998 colon = system: HCC-2998 colon
A549 NSCLC = system: A549 NSCLC
SK-MEL-5 melanoma = system: SK-MEL-5 melanoma
SN12C renal = system: SN12C renal
OVCAR-4 ovarian = system: OVCAR-4 ovarian
M14 melanoma = system: M14 melanoma
UACC-257 melanoma = system: UACC-257 melanoma
COLO 205 colon = system: COLO 205 colon
MALME-3M melanoma = system: MALME-3M melanoma
EKVX NSCLC = system: EKVX NSCLC
SF-268 CNS = system: SF-268 CNS
BT-549 breast = system: BT-549 breast
U251 CNS = system: U251 CNS
LOX IMVI melanoma = system: LOX IMVI melanoma
SW-620 colon = system: SW-620 colon
UACC-62 melanoma = system: UACC-62 melanoma
A498 renal = system: A498 renal
OVCAR-3 ovarian = system: OVCAR-3 ovarian
SK-MEL-28 melanoma = system: SK-MEL-28 melanoma
K-562 leukemia = system: K-562 leukemia
OVCAR-5 ovarian = system: OVCAR-5 ovarian
PC-3 prostate = system: PC-3 prostate
SK-OV-3 ovarian = system: SK-OV-3 ovarian
NCI-H23 lung = system: NCI-H23 lung
TK-10 renal = system: TK-10 renal
SR leukemia = system: SR leukemia
NCI/ADR-RES ovarian = system: NCI/ADR-RES ovarian
786-0 renal = system: 786-0 renal
NCI-H522 lung = system: NCI-H522 lung
KM12 colon = system: KM12 colon
SNB-19 CNS = system: SNB-19 CNS
HCT-116 colon = system: HCT-116 colon
MOLT-4 leukemia = system: MOLT-4 leukemia
SF-295 CNS = system: SF-295 CNS
HS 578T breast = system: HS 578T breast
CCRF-CEM leukemia = system: CCRF-CEM leukemia
DU-145 prostate = system: DU-145 prostate
HL-60(TB) leukemia = system: HL-60(TB) leukemia

CC(=O)O[C@H](C[C@H](C(C)C)N(C)C(=O)[C@@H](NC(=O)[C@H]1CCCCN1C)C(C)C)c1nc(C(=O)N[C@@H](Cc2ccccc2)C[C@H](C)C(=O)O)c(C)s1 was tested, and the GI50 (MDA-MB-231 breast) was less than 0.0025 µM, the TGI (MDA-MB-231 breast) was greater than 25 µM and the GI50 (HCT-15 colon) was 0.00385 µM. For the same compound, the TGI (HCT-15 colon) was greater than 25 µM, the GI50 (RPMI-8226 leukemia) was less than 0.0025 µM and the TGI (RPMI-8226 leukemia) was greater than 25 µM. For the same compound, the GI50 (OVCAR-8 ovarian) was less than 0.0025 µM, the TGI (OVCAR-8 ovarian) was greater than 25 µM and the GI50 (NCI-H460 lung) was less than 0.0025 µM. For the same compound, the TGI (NCI-H460 lung) was greater than 25 µM, the GI50 (SK-MEL-2 melanoma) was less than 0.0025 µM and the TGI (SK-MEL-2 melanoma) was greater than 25 µM. It also gave a GI50 (UO-31 renal) of 0.0161 µM, a TGI (UO-31 renal) greater than 25 µM and a GI50 (IGROV1 ovarian) of 0.00302 µM. It also gave a TGI (IGROV1 ovarian) greater than 25 µM, a GI50 (HT29 colon) of less than 0.0025 µM and a TGI (HT29 colon) greater than 25 µM. The GI50 (MCF7 breast) was less than 0.0025 µM, the TGI (MCF7 breast) was greater than 25 µM and the GI50 (SNB-75 CNS) was less than 0.0025 µM. It also gave a TGI (SNB-75 CNS) greater than 25 µM, a GI50 (SF-539 CNS) of less than 0.0025 µM and a TGI (SF-539 CNS) of 0.0187 µM. It also gave a GI50 (HOP-62 NSCLC) of less than 0.0025 µM, a TGI (HOP-62 NSCLC) greater than 25 µM and a GI50 (HOP-92 NSCLC) greater than 25 µM. For the same compound, the TGI (HOP-92 NSCLC) was greater than 25 µM, the GI50 (HCC-2998 colon) was less than 0.0025 µM and the TGI (HCC-2998 colon) was greater than 25 µM. For the same compound, the GI50 (A549 NSCLC) was 0.00532 µM, the TGI (A549 NSCLC) was greater than 25 µM and the GI50 (SK-MEL-5 melanoma) was less than 0.0025 µM. The TGI (SK-MEL-5 melanoma) was 0.0144 µM, the GI50 (SN12C renal) was less than 0.0025 µM and the TGI (SN12C renal) was greater than 25 µM. It also gave a GI50 (OVCAR-4 ovarian) greater than 25 µM, a TGI (OVCAR-4 ovarian) greater than 25 µM and a GI50 (M14 melanoma) of less than 0.0025 µM. The TGI (M14 melanoma) was greater than 25 µM, the GI50 (UACC-257 melanoma) was greater than 25 µM and the TGI (UACC-257 melanoma) was greater than 25 µM. The GI50 (COLO 205 colon) was less than 0.0025 µM, the TGI (COLO 205 colon) was 0.00595 µM and the GI50 (MALME-3M melanoma) was 4.56 µM. It also gave a TGI (MALME-3M melanoma) greater than 25 µM, a GI50 (EKVX NSCLC) of 0.00266 µM and a TGI (EKVX NSCLC) greater than 25 µM. For the same compound, the GI50 (SF-268 CNS) was less than 0.0025 µM, the TGI (SF-268 CNS) was greater than 25 µM and the GI50 (BT-549 breast) was less than 0.0025 µM. For the same compound, the TGI (BT-549 breast) was 0.0627 µM, the GI50 (U251 CNS) was less than 0.0025 µM and the TGI (U251 CNS) was greater than 25 µM. For the same compound, the GI50 (LOX IMVI melanoma) was less than 0.0025 µM, the TGI (LOX IMVI melanoma) was greater than 25 µM and the GI50 (SW-620 colon) was less than 0.0025 µM. It also gave a TGI (SW-620 colon) greater than 25 µM, a GI50 (UACC-62 melanoma) of less than 0.0025 µM and a TGI (UACC-62 melanoma) greater than 25 µM. For the same compound, the GI50 (A498 renal) was less than 0.0025 µM, the TGI (A498 renal) was less than 0.0025 µM and the GI50 (OVCAR-3 ovarian) was less than 0.0025 µM. It also gave a TGI (OVCAR-3 ovarian) greater than 25 µM, a GI50 (SK-MEL-28 melanoma) of less than 0.0025 µM and a TGI (SK-MEL-28 melanoma) greater than 25 µM. It also gave a GI50 (K-562 leukemia) of less than 0.0025 µM, a TGI (K-562 leukemia) greater than 25 µM and a GI50 (OVCAR-5 ovarian) of 0.0085 µM. The TGI (OVCAR-5 ovarian) was greater than 25 µM, the GI50 (PC-3 prostate) was less than 0.0025 µM and the TGI (PC-3 prostate) was greater than 25 µM. The GI50 (SK-OV-3 ovarian) was less than 0.0025 µM, the TGI (SK-OV-3 ovarian) was greater than 25 µM and the GI50 (NCI-H23 lung) was less than 0.0025 µM. It also gave a TGI (NCI-H23 lung) greater than 25 µM, a GI50 (TK-10 renal) greater than 25 µM and a TGI (TK-10 renal) greater than 25 µM. The GI50 (SR leukemia) was less than 0.0025 µM, the TGI (SR leukemia) was greater than 25 µM and the GI50 (NCI/ADR-RES ovarian) was 0.0574 µM. It also gave a TGI (NCI/ADR-RES ovarian) greater than 25 µM, a GI50 (786-0 renal) of less than 0.0025 µM and a TGI (786-0 renal) greater than 25 µM. It also gave a GI50 (NCI-H522 lung) of less than 0.0025 µM, a TGI (NCI-H522 lung) greater than 25 µM and a GI50 (KM12 colon) of less than 0.0025 µM. For the same compound, the TGI (KM12 colon) was greater than 25 µM, the GI50 (SNB-19 CNS) was less than 0.0025 µM and the TGI (SNB-19 CNS) was greater than 25 µM. For the same compound, the GI50 (HCT-116 colon) was less than 0.0025 µM, the TGI (HCT-116 colon) was greater than 25 µM and the GI50 (MOLT-4 leukemia) was less than 0.0025 µM. The TGI (MOLT-4 leukemia) was greater than 25 µM, the GI50 (SF-295 CNS) was less than 0.0025 µM and the TGI (SF-295 CNS) was greater than 25 µM. The GI50 (HS 578T breast) was less than 0.0025 µM, the TGI (HS 578T breast) was greater than 25 µM and the GI50 (CCRF-CEM leukemia) was less than 0.0025 µM. The TGI (CCRF-CEM leukemia) was greater than 25 µM, the GI50 (DU-145 prostate) was less than 0.0025 µM and the TGI (DU-145 prostate) was greater than 25 µM.

Work on COC(=O)c1cccc(NC(=O)Nc2ccc3oc(=O)c4ccccc4c3c2)c1 yielded a GI50 (MDA-MB-231 breast) of 3.89 µM, a TGI (MDA-MB-231 breast) greater than 100 µM and a GI50 (HCT-15 colon) greater than 100 µM. For the same compound, the TGI (HCT-15 colon) was greater than 100 µM, the GI50 (RPMI-8226 leukemia) was 24.5 µM and the TGI (RPMI-8226 leukemia) was greater than 100 µM. For the same compound, the GI50 (OVCAR-8 ovarian) was greater than 100 µM, the TGI (OVCAR-8 ovarian) was greater than 100 µM and the GI50 (NCI-H460 lung) was greater than 100 µM. For the same compound, the TGI (NCI-H460 lung) was greater than 100 µM, the GI50 (UO-31 renal) was greater than 100 µM and the TGI (UO-31 renal) was greater than 100 µM. For the same compound, the GI50 (IGROV1 ovarian) was greater than 100 µM, the TGI (IGROV1 ovarian) was greater than 100 µM and the GI50 (HT29 colon) was greater than 100 µM. It also gave a TGI (HT29 colon) greater than 100 µM, a GI50 (MCF7 breast) greater than 100 µM and a TGI (MCF7 breast) greater than 100 µM. It also gave a GI50 (HOP-92 NSCLC) greater than 100 µM, a TGI (HOP-92 NSCLC) greater than 100 µM and a GI50 (A549 NSCLC) greater than 100 µM. It also gave a TGI (A549 NSCLC) greater than 100 µM, a GI50 (M14 melanoma) greater than 100 µM and a TGI (M14 melanoma) greater than 100 µM. For the same compound, the GI50 (UACC-257 melanoma) was greater than 100 µM, the TGI (UACC-257 melanoma) was greater than 100 µM and the GI50 (COLO 205 colon) was greater than 100 µM. The TGI (COLO 205 colon) was greater than 100 µM, the GI50 (EKVX NSCLC) was greater than 100 µM and the TGI (EKVX NSCLC) was greater than 100 µM. For the same compound, the GI50 (SF-268 CNS) was 3.5 µM, the TGI (SF-268 CNS) was greater than 100 µM and the GI50 (SW-620 colon) was greater than 100 µM. The TGI (SW-620 colon) was greater than 100 µM, the GI50 (OVCAR-3 ovarian) was greater than 100 µM and the TGI (OVCAR-3 ovarian) was greater than 100 µM. For the same compound, the GI50 (SK-MEL-28 melanoma) was greater than 100 µM, the TGI (SK-MEL-28 melanoma) was greater than 100 µM and the GI50 (K-562 leukemia) was greater than 100 µM. The TGI (K-562 leukemia) was greater than 100 µM, the GI50 (SK-OV-3 ovarian) was greater than 100 µM and the TGI (SK-OV-3 ovarian) was greater than 100 µM. It also gave a GI50 (NCI-H23 lung) greater than 100 µM, a TGI (NCI-H23 lung) greater than 100 µM and a GI50 (SR leukemia) of 37 µM. For the same compound, the TGI (SR leukemia) was greater than 100 µM, the GI50 (HL-60(TB) leukemia) was 46.5 µM and the TGI (HL-60(TB) leukemia) was greater than 100 µM. For the same compound, the GI50 (NCI-H522 lung) was 4.91 µM, the TGI (NCI-H522 lung) was greater than 100 µM and the GI50 (MOLT-4 leukemia) was 36.2 µM. For the same compound, the TGI (MOLT-4 leukemia) was greater than 100 µM, the GI50 (CCRF-CEM leukemia) was 12.1 µM and the TGI (CCRF-CEM leukemia) was 26.2 µM. It also gave a GI50 (DU-145 prostate) greater than 100 µM and a TGI (DU-145 prostate) greater than 100 µM.
